Experimental data as given in US20230391778A1, “INDOLIN-2-ONE OR PYRROLO -PYRIDIN -2 -ONE DERIVATIVES” (Hoffmann-La Roche Inc., priority 2014, published 2023).

These compounds were tested against T1, mouse ENT-1 transporter (Mus musculus, UniProt Q9JIM1) (assay: Measure of adenosine transport activity (ENT1 adenosine uptake inhibition)). Conditions: stable cells expressing mouse ENT-1, [2,8-3H]-adenosine 6 nM, 20 min.
T1 construct: expressed in transfected cells
T1 sequence (Q9JIM1 1-460): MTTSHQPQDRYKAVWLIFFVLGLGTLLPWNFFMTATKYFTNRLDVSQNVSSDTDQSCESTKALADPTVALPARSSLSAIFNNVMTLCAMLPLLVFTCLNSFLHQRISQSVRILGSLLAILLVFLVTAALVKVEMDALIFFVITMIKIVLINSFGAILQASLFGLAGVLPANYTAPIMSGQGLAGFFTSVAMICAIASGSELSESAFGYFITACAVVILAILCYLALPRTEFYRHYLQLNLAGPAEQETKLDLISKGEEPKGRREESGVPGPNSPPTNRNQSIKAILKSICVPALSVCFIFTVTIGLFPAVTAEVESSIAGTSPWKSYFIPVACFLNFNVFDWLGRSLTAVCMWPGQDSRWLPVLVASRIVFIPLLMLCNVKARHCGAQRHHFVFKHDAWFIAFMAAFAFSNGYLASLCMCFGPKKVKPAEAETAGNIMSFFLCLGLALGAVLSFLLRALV
Type: cell-based
Description: To measure adenosine transport activity of ENT-1 mammalian cells, stable cells expressing the mouse ENT-1 transporter were plated on day 1 in 96-well culture plates at the density of 60,000 cells/well, in complete DMEM/F12 medium supplemented with glutamax, 10% FBS and 10 μg/ml puromycin. On day 2, the medium was aspirated and the cells were washed twice with uptake buffer (10 mM Hepes-Tris, pH 7.4 containing 150 mM NaCl, 1 mM CaCl2), 2.5 mM KCl, 2.5 mM MgSO4, 10 mM D-glucose) (UB). For inhibition experiments, cells were then incubated at RT with various concentrations of compounds with 1% DMSO final. Non-specific uptake was defined in the presence of 10 μM S-(4-Nitrobenzyl)-6-thioinosine (NBTI, Sigma Cat #N2255).
The plates were then incubated for 20 min with gentle shaking and the reaction was stopped by aspiration of the mixture and washing (three times) with ice-cold UB. The cells were lysed by the addition of scintillation liquid, shaken 3 hours and the radioactivity in the cells was estimated using a microplates scintillation counter (TopCount NXT, Packard).

Compound	IC50
Cc1ncc(-c2ccc3c(c2)N(c2ccncc2F)C(=O)C3(C)C)cn1 [Example 46, 1-(3-Fluoropyridin-4-yl)-3,3-dimethyl-6-(2-methylpyrimidin-5-yl)indolin-2-one]	3530 nM
Cc1ccc(N2C(=O)C(C)(C)c3ccc(-n4cnc(C(C)C)c4)cc32)cn1 [Example 33, 6-(4-Isopropylimidazol-1-yl)-3,3-dimethyl-1-(6-methyl-3-pyridyl)indolin-2-one]	1220 nM
Cc1ncc(-c2ccc3c(c2)N(c2cc(Cl)nc(Cl)c2)C(=O)C3(C)C)cn1 [Example 115, 1-(2,6-dichloropyridin-4-yl)-3,3-dimethyl-6-(2-methylpyrimidin-5-yl)indolin-2-one]	144 nM
Cc1ncc(-c2ccc3c(c2)N(c2cncc(F)c2)C(=O)C3(C)C)cn1 [Example 142, 1-(5-fluoropyridin-3-yl)-3,3-dimethyl-6-(2-methylpyrimidin-5-yl)indolin-2-one]	765 nM
Cc1ncc(-c2ccc3c(c2)N(c2cnc(CN)nc2)C(=O)C3(C)C)cn1 [Example 103, 1-[2-(aminomethyl)pyrimidin-5-yl]-3,3-dimethyl-6-(2-methylpyrimidin-5-yl)indol-2-one]	18400 nM
Cc1ncc(-c2ccc3c(c2)N(c2cc(C4CC4)cnn2)C(=O)C3(C)C)cn1 [Example 130, 1-(5-cyclopropylpyridazin-3-yl)-3,3-dimethyl-6-(2-methylpyrimidin-5-yl)indolin-2-one]	2370 nM
5-(3,3-dimethyl-1-(5-methylpyrimidin-2-yl)-2-oxoindolin-6-yl)-2-methylpyrimidine 1-oxide [Example 101]	2400 nM
Cc1ncc(-c2ccc3c(c2)N(c2nc(C)ns2)C(=O)C3(C)C)cn1 [Example 123, 3,3-dimethyl-1-(3-methyl-1,2,4-thiadiazol-5-yl)-6-(2-methylpyrimidin-5-yl)indolin-2-one]	694 nM
Cc1ncc(-c2ccc3c(c2)N(c2cccnc2)C(=O)C3(C)C)cn1 [Example 3, 3,3-Dimethyl-6-(2-methylpyrimidin-5-yl)-1-(pyridin-3-yl)indolin-2-one]	1780 nM
Cc1ncc(-c2ccc3c(c2)N(c2cnc(Cl)cn2)C(=O)C3(C)C)cn1 [Example 117, 1-(5-chloropyrazin-2-yl)-3,3-dimethyl-6-(2-methylpyrimidin-5-yl)indol-2-one]	35 nM
Cc1ncc(-c2ccc3c(c2)N(c2ccc(C#N)nc2)C(=O)C3(C)C)cn1 [Example 30, 5-(3,3-Dimethyl-6-(2-methylpyrimidin-5-yl)-2-oxoindolin-1-yl)picolinonitrile]	2140 nM
Cc1ncc(-c2ccc3c(c2)N(c2cn[nH]c2)C(=O)C3(C)C)cn1 [Example 83, 3,3-dimethyl-6-(2-methylpyrimidin-5-yl)-1-(1H-pyrazol-4-yl)indolin-2-one]	4660 nM
Cc1ncc(-c2ccc3c(c2)N(c2cncnc2C)C(=O)C3(C)C)cn1 [Example 84, 3,3-dimethyl-6-(2-methylpyrimidin-5-yl)-1-(4-methylpyrimidin-5-yl)indolin-2-one]	15600 nM
COCc1ccc(N2C(=O)C(C)(C)c3ccc(-c4cnc(C)nc4)cc32)cn1 [Example 129, 1-(6-(methoxymethyl)pyridin-3-yl)-3,3-dimethyl-6-(2-methylpyrimidin-5-yl)indolin-2-one]	887 nM
Cc1ncc(-c2ccc3c(c2)N(c2nnc(C)o2)C(=O)C3(C)C)cn1 [Example 51, 3,3-Dimethyl-1-(5-methyl-1,3,4-oxadiazol-2-yl)-6-(2-methylpyrimidin-5-yl)indolin-2-one]	1850 nM
Cc1ncc(-c2ccc3c(c2)N(c2ncccn2)C(=O)C3(C)C)cn1 [Example 79, 3,3-dimethyl-6-(2-methylpyrimidin-5-yl)-1-(pyrimidin-2-yl)indolin-2-one]	3880 nM
Cc1ncc(-c2ccc3c(c2)N(c2cnc(Cl)nc2)C(=O)C3(C)C)cn1 [Example 114, 1-(2-chloropyrimidin-5-yl)-3,3-dimethyl-6-(2-methylpyrimidin-5-yl)indolin-2-one]	456 nM
Cc1ncc(-c2ccc3c(c2)N(c2cncnc2)C(=O)C3(C)C)cn1 [Example 8, 3,3-Dimethyl-6-(2-methylpyrimidin-5-yl)-1-(pyrimidin-5-yl)indolin-2-one]	3890 nM
Cc1ncc(N2C(=O)C(C)(C)c3ccc(-n4cnc(C(C)C)c4)cc32)cn1 [Example 38, 6-(4-Isopropylimidazol-1-yl)-3,3-dimethyl-1-(2-methylpyrimidin-5-yl)indolin-2-one]	426 nM
CCn1ccc(N2C(=O)C(C)(C)c3ccc(-c4cnc(C)nc4)cc32)n1 [Example 94, 1-(1-ethyl-1H-pyrazol-3-yl)-3,3-dimethyl-6-(2-methylpyrimidin-5-yl)indolin-2-one]	1160 nM
Cc1ncc(-c2ccc3c(c2)N(c2cncc(C(F)(F)F)c2)C(=O)C3(C)C)cn1 [Example 152, 3,3-dimethyl-6-(2-methylpyrimidin-5-yl)-1-(5-(trifluoromethyl)pyridin-3-yl)indolin-2-one]	317 nM

Second part, the compound after the results:

IC50	Compound
5630 nM	Cc1cc(C)nc(N2C(=O)C(C)(C)c3ccc(-c4cnc(C)nc4)cc32)n1 [Example 67, 1-(4,6-Dimethylpyrimidin-2-yl)-3,3-dimethyl-6-(2-methylpyrimidin-5-yl)indolin-2-one]
37 nM	Cc1cnc(N2C(=O)C(C)(C)c3ccc(-c4cnc(C)c(F)c4)cc32)cn1 [Example 151, 6-(5-fluoro-6-methyl-3-pyridyl)-3,3-dimethyl-1-(5-methylpyrazin-2-yl)indolin-2-one]
3510 nM	Cc1cc(-c2ccc3c(c2)N(c2cncc(C)n2)C(=O)C3(C)C)ccn1 [Example 144, 3,3-dimethyl-1-(6-methylpyrazin-2-yl)-6-(2-methyl-4-pyridyl)indolin-2-one]
5090 nM	Cc1ccnc(N2C(=O)C(C)(C)c3ccc(-c4cnc(C)nc4)cc32)n1 [Example 64, 3,3-Dimethyl-1-(4-methylpyrimidin-2-yl)-6-(2-methylpyrimidin-5-yl)indolin-2-one]
946 nM	Cc1cccc(N2C(=O)C(C)(C)c3ccc(-c4cnc(C)nc4)cc32)n1 [Example 61, 3,3-Dimethyl-1-(6-methylpyridin-2-yl)-6-(2-methylpyrimidin-5-yl)indolin-2-one]
851 nM	Cc1ncc(-c2ccc3c(c2)N(c2nccc(Cl)n2)C(=O)C3(C)C)cn1 [Example 128, 1-(4-chloropyrimidin-2-yl)-3,3-dimethyl-6-(2-methylpyrimidin-5-yl)indolin-2-one]
8790 nM	Cc1cc(N2C(=O)C(C)(C)c3ccc(-c4cnccc4F)cc32)ccn1 [Example 24, 6-(4-Fluoropyridin-3-yl)-3,3-dimethyl-1-(2-methylpyridin-4-yl)indolin-2-one]
481 nM	Cc1ncc(-c2ccc3c(c2)N(c2ccc(C)[n+]([O-])n2)C(=O)C3(C)C)cn1 (single isomer, unassigned) [Example 106, 3-(3,3-dimethyl-6-(2-methylpyrimidin-5-yl)-2-oxoindolin-1-yl)-6-methylpyridazine 1-oxide]
335 nM	Cc1cc(N2C(=O)C(C)(C)c3ccc(-c4cnc(C)nc4)cc32)cc(Cl)n1 [Example 119, 1-(2-chloro-6-methylpyridin-4-yl)-3,3-dimethyl-6-(2-methylpyrimidin-5-yl)indolin-2-one]
1280 nM	Cc1ncc(-c2ccc3c(c2)N(c2cc(C)c(C)cn2)C(=O)C3(C)C)cn1 [Example 69, 1-(4,5-Dimethylpyridin-2-yl)-3,3-dimethyl-6-(2-methylpyrimidin-5-yl)indolin-2-one]
207 nM	Cc1cncc(-c2ccc3c(c2)N(c2cnc(C)cn2)C(=O)C3(C)C)c1 [Example 149, 3,3-dimethyl-1-(5-methylpyrazin-2-yl)-6-(5-methyl-3-pyridyl)indolin-2-one]
2100 nM	Cc1ncc(-c2ccc3c(c2)N(c2cccnn2)C(=O)C3(C)C)cn1 [Example 76, 3,3-dimethyl-6-(2-methylpyrimidin-5-yl)-1-(pyridazin-3-yl)indolin-2-one]
2410 nM	Cc1ncc(-c2ccc3c(c2)N(c2cc[nH]n2)C(=O)C3(C)C)cn1 [Example 55, 3,3-Dimethyl-6-(2-methylpyrimidin-5-yl)-1-(1H-pyrazol-3-yl)indolin-2-one]
2450 nM	Cc1cnc(-c2ccc3c(c2)N(c2cncc(C)n2)C(=O)C3(C)C)cn1 [Example 132, 3,3-dimethyl-6-(5-methylpyrazin-2-yl)-1-(6-methylpyrazin-2-yl)indolin-2-one]
2130 nM	Cc1cncc(N2C(=O)C(C)(C)c3ccc(-c4cncc(F)c4)cc32)n1 [Example 146, 6-(5-fluoro-3-pyridyl)-3,3-dimethyl-1-(6-methylpyrazin-2-yl)indolin-2-one]
